Measurements from the supplement of paper PMC11061612.

Key:
Assay in all cases: combination Emax (second highest fraction inhibited in the dose matrix, 72 h); higher = more inhibition; extreme values may be limits of the assay
[1] = tested on: MCF7 (Breast Carcinoma)
Summary of the method: (§1)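 Cell lines grown in DMEM/F12 or RPMI with 10% FBS were plated in 1536-well plates and held 24 hours at 37°C, 5% CO2 before 72 hours of exposure to two-drug dose matrices, with DMSO typically at 0.2%. CellTiter-Glo 2.0 luminescence gave viability, which was converted to inhibition. Vehicle wells were set to 0 and blank wells to 1. Combination Emax is the second-highest inhibition in the matrix, and Bliss excess is the observed combination effect minus the expected EA + EB − EA·EB, where EA and EB are the single-agent effects.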

[2] = tested on: EKVX (Non-Small Cell Lung Carcinoma)
Summary of the method: as §1

[3] = tested on: NCI-H1688 (Small Cell Lung Carcinoma)
Summary of the method: as §1

[4] = tested on: SK-LMS-1 (Other Solid Carcinomas)
Summary of the method: as §1

[5] = tested on: HuO9 (Osteosarcoma)
Summary of the method: as §1

[6] = tested on: CAL-39 (Other Solid Carcinomas)
Summary of the method: as §1

[7] = tested on: HCC-827 (Lung Adenocarcinoma)
Summary of the method: as §1

[8] = tested on: H4 (Low Grade Glioma)
Summary of the method: as §1

[9] = tested on: SLVL (B-Cell Non-Hodgkin's Lymphoma)
Summary of the method: as §1

[10] = tested on: MSTO-211H (Mesothelioma)
Summary of the method: as §1

[11] = tested on: NOMO-1 (Acute Myeloid Leukemia)
Summary of the method: as §1

[12] = tested on: D-283MED (Other Solid Carcinomas)
Summary of the method: as §1

[13] = tested on: SW48 (Colorectal Carcinoma)
Summary of the method: as §1

[14] = tested on: Saos-2 (Osteosarcoma)
Summary of the method: as §1

[15] = tested on: SW948 (Colorectal Carcinoma)
Summary of the method: as §1

[16] = tested on: SKN-3 (Head and Neck Carcinoma)
Summary of the method: as §1

[17] = tested on: RCC10RGB (Kidney Carcinoma)
Summary of the method: as §1

[18] = tested on: HCT-116 (Colorectal Carcinoma)
Summary of the method: as §1

[19] = tested on: EFM-192A (Breast Carcinoma)
Summary of the method: as §1

[20] = tested on: SK-MEL-1 (Melanoma)
Summary of the method: as §1

SMILES | combination Emax [1] | combination Emax [2] | combination Emax [3] | combination Emax [4] | combination Emax [5] | combination Emax [6] | combination Emax [7] | combination Emax [8] | combination Emax [9] | combination Emax [10] | combination Emax [11] | combination Emax [12] | combination Emax [13] | combination Emax [14] | combination Emax [15] | combination Emax [16] | combination Emax [17] | combination Emax [18] | combination Emax [19] | combination Emax [20]
CC1(C)CCC(CN2CCN(c3ccc(C(=O)NS(=O)(=O)c4ccc(NCC5CCOCC5)c([N+](=O)[O-])c4)c(Oc4cnc5[nH]ccc5c4)c3)CC2)=C(c2ccc(Cl)cc2)C1 [Venetoclax] + CN(C)CCCOc1ccc(-c2ccc3ncc4c(c3c2)n(C2CCOCC2)c(=O)n4C)cn1 [AZD0156] (first compound max 1 µM, 7x7, partner max 1 µM) | 0.242 | 0.22 | 0.195 | 0.5 | 0.343 | 0.21 | 0.26 | 0.232 | 0.848 | 0.123 | 0.912 | 0.706 | 0.607 | 0.42 | 0.409 | 0.134 | 0.174 | 0.196 | 0.25 | 0.231
CC1(C)CCC(CN2CCN(c3ccc(C(=O)NS(=O)(=O)c4ccc(NCC5CCOCC5)c([N+](=O)[O-])c4)c(Oc4cnc5[nH]ccc5c4)c3)CC2)=C(c2ccc(Cl)cc2)C1 [Venetoclax] + C=CCn1c(=O)c2cnc(Nc3ccc(N4CCN(C)CC4)cc3)nc2n1-c1cccc(C(C)(C)O)n1 [AZD1775] (first compound max 1 µM, partner max 1 µM) | 0.452 | 0.172 | 0.666 | 0.61 | 0.759 | 0.36 | 0.413 | 0.85 | 0.978 | 0.592 | 0.99 | 0.979 | 0.809 | 0.818 | 0.773 | 0.402 | 0.572 | 0.579 | 0.327 | 0.411
CN(CCO)CC[C@H](CSc1ccccc1)Nc1ccc(S(=O)(=O)NC(=O)c2ccc(N3CCC([C@@H](O)c4ccccc4-c4ccc(Cl)cc4)CC3)cc2)cc1S(=O)(=O)C(F)(F)F [AZD4320] + Cc1cc2ncnn2cc1Nc1ncc2c(n1)n(C1CCOCC1)c(=O)n2C [AZD7648] (first compound max 1 µM, 7x7, partner max 10 µM) | 0.367 | 0.237 | 0.617 | 0.447 | 0.77 | 0.371 | 0.182 | 0.204 | 0.605 | 0.327 | 0.475 | 0.923 | 0.632 | 0.21 | 0.393 | 0.0826 | 0.265 | 0.229 | 0.226 | 0.606
Cc1cc2ncnn2cc1Nc1ncc2c(n1)n(C1CCOCC1)c(=O)n2C [AZD7648] + C[C@@H]1COCCN1C2=NC(=NC(=C2)C3(CC3)[S@](=N)(=O)C)C4=C5C=CNC5=NC=C4 [AZD6738] (first compound max 10 µM, 7x7, partner max 10 µM) | 0.755 | 0.317 | 0.251 | 0.533 | 0.756 | 0.485 | 0.5 | 0.789 | 0.886 | 0.681 | 0.961 | 0.988 | 0.681 | 0.561 | 0.578 | 0.185 | 0.316 | 0.723 | 0.292 | 0.293
COc1cccc(OCCCN)c1-c1cc(Nc2cnc(C#N)cn2)n[nH]1 [Prexasertib] + O=C(c1cc(Cc2n[nH]c(=O)c3ccccc23)ccc1F)N1CCN(C(=O)C2CC2)CC1 [Olaparib] (first compound max 1 µM, 7x7, partner max 10 µM) | 0.429 | 0.194 | 0.528 | 0.676 | 0.878 | 0.387 | 0.523 | 0.845 | 0.974 | 0.806 | 1 | 0.982 | 0.658 | 0.806 | 0.838 | 0.616 | 0.479 | 0.744 | 0.143 | 0.596
CC1(C)CCC(CN2CCN(c3ccc(C(=O)NS(=O)(=O)c4ccc(NCC5CCOCC5)c([N+](=O)[O-])c4)c(Oc4cnc5[nH]ccc5c4)c3)CC2)=C(c2ccc(Cl)cc2)C1 [Venetoclax] + C[C@@H](Nc1cc(F)cc(F)c1)c1cc(C(=O)N(C)C)cc2c(=O)cc(N3CCOCC3)oc12 [AZD8186] (first compound max 1 µM, 7x7, partner max 3 µM) | 0.255 | 0.367 | 0.191 | 0.412 | 0.468 | 0.841 | 0.254 | 0.383 | 0.746 | 0.207 | 0.931 | 0.615 | 0.275 | 0.34 | 0.264 | 0.148 | 0.447 | 0.0935 | 0.178 | 0.198
COc1cc2c(cc1OCCCCCOc1cc3c(cc1OC)C(=O)N1C=C(C)C[C@H]1C=N3)N=C[C@@H]1CC(C)=CN1C2=O [SG3199] + O=C(c1cc(Cc2n[nH]c(=O)c3ccccc23)ccc1F)N1CCN(C(=O)C2CC2)CC1 [Olaparib] (first compound max 0.001 µM, 7x7, partner max 10 µM) | 0.106 | 0.0945 | 0.107 | 0.2 | 0.2 | 0.0869 | 0.131 | 0.505 | 0.518 | 0.124 | 0.145 | 0.417 | 0.0699 | 0.125 | 0.185 | 0.0527 | 0.148 | 0.314 | 0.129 | 0.134
CN(CCO)CC[C@H](CSc1ccccc1)Nc1ccc(S(=O)(=O)NC(=O)c2ccc(N3CCC([C@@H](O)c4ccccc4-c4ccc(Cl)cc4)CC3)cc2)cc1S(=O)(=O)C(F)(F)F [AZD4320] + C1CN(CCC1(C(=O)N[C@@H](CCO)C2=CC=C(C=C2)Cl)N)C3=NC=NC4=C3C=CN4 [Capivasertib] (first compound max 1 µM, 7x7, partner max 3 µM) | 0.279 | 0.269 | 0.575 | 0.305 | 0.873 | 0.286 | 0.201 | 0.404 | 0.622 | 0.48 | 0.51 | 0.763 | 0.732 | 0.399 | 0.624 | 0.062 | 0.237 | 0.146 | 0.418 | 0.419
CN(CCO)CC[C@H](CSc1ccccc1)Nc1ccc(S(=O)(=O)NC(=O)c2ccc(N3CCC([C@@H](O)c4ccccc4-c4ccc(Cl)cc4)CC3)cc2)cc1S(=O)(=O)C(F)(F)F [AZD4320] + CN(C)CCCOc1ccc(-c2ccc3ncc4c(c3c2)n(C2CCOCC2)c(=O)n4C)cn1 [AZD0156] (first compound max 1 µM, 7x7, partner max 1 µM) | 0.234 | 0.155 | 0.487 | 0.371 | 0.79 | 0.181 | 0.22 | 0.247 | 0.461 | 0.435 | 0.377 | 0.818 | 0.517 | 0.193 | 0.248 | 0.102 | 0.243 | 0.167 | 0.234 | 0.498
CN(CCO)CC[C@H](CSc1ccccc1)Nc1ccc(S(=O)(=O)NC(=O)c2ccc(N3CCC([C@@H](O)c4ccccc4-c4ccc(Cl)cc4)CC3)cc2)cc1S(=O)(=O)C(F)(F)F [AZD4320] + C[C@@H](Nc1cc(F)cc(F)c1)c1cc(C(=O)N(C)C)cc2c(=O)cc(N3CCOCC3)oc12 [AZD8186] (first compound max 1 µM, 7x7, partner max 3 µM) | 0.544 | 0.308 | 0.484 | 0.94 | 0.953 | 0.41 | 0.393 | 0.583 | 0.955 | 0.751 | 0.636 | 0.928 | 0.914 | 0.478 | 0.485 | 0.277 | 0.507 | 0.686 | 0.345 | 0.722
CN(CCO)CC[C@H](CSc1ccccc1)Nc1ccc(S(=O)(=O)NC(=O)c2ccc(N3CCC([C@@H](O)c4ccccc4-c4ccc(Cl)cc4)CC3)cc2)cc1S(=O)(=O)C(F)(F)F [AZD4320] + CCN(CCO)CCCOc1ccc2c(Nc3cc(CC(=O)Nc4cccc(F)c4)[nH]n3)ncnc2c1 [AZD2811] (first compound max 1 µM, 7x7, partner max 1 µM) | 0.248 | 0.155 | 0.723 | 0.845 | 0.728 | 0.397 | 0.176 | 0.543 | 0.94 | 0.837 | 0.76 | 0.973 | 1 | 0.77 | 0.545 | 0.0584 | 0.133 | 0.748 | 0.172 | 0.453
CC(=O)Nc1cccc(-n2c(=O)n(C3CC3)c(=O)c3c(Nc4ccc(I)cc4F)n(C)c(=O)c(C)c32)c1 [Trametinib] + Cc1nc(-c2cn3c(n2)-c2ccc(-c4cnn(C(C)(C)C(N)=O)c4)cc2OCC3)n(C(C)C)n1 [Taselisib] (first compound max 1 µM, 7x7, partner max 10 µM) | 0.732 | 0.82 | 0.628 | 0.974 | 0.8 | 1 | 0.762 | 0.795 | 0.478 | 0.854 | 0.98 | 0.576 | 0.95 | 0.681 | 0.994 | 0.655 | 0.69 | 1 | 0.72 | 0.942
